Measured values taken from ChEMBL document CHEMBL1154363, “Heterocyclic 1,7-disubstituted indole sulfonamides are potent and selective human EP3 receptor antagonists” (Bioorg Med Chem Lett, 2009).

How the values were obtained:
[1] = biological target: T1, Prostaglandin E2 receptor EP3 subtype (Homo sapiens, UniProt P43115); assay: Displacement of [3H]PGE2 from human EP3 receptor
T1 sequence (P43115 whole entry): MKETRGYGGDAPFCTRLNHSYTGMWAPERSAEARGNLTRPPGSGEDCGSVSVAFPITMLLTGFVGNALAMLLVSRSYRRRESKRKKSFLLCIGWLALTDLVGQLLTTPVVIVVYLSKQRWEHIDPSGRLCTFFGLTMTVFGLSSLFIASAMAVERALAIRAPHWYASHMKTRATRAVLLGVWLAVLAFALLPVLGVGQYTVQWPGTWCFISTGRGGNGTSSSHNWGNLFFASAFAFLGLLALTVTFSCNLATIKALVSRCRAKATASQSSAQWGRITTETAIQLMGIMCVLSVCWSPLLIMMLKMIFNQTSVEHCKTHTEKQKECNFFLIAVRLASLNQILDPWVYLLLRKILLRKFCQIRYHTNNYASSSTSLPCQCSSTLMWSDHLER

[2] = biological target: T2, Prostaglandin E2 receptor EP3 subtype (Homo sapiens) (UniProt P43115); assay: Displacement of [3H]PGE2 from human EP3 receptor in presence of 10% human serum
T2 sequence (whole entry): T1 sequence (P43115 whole entry)

[3] = biological target: T3, Prostaglandin E2 receptor EP1 subtype (Homo sapiens) (UniProt P34995); assay: Activity at EP1 receptor at 10 uM by FLIPR assay
T3 sequence (whole entry): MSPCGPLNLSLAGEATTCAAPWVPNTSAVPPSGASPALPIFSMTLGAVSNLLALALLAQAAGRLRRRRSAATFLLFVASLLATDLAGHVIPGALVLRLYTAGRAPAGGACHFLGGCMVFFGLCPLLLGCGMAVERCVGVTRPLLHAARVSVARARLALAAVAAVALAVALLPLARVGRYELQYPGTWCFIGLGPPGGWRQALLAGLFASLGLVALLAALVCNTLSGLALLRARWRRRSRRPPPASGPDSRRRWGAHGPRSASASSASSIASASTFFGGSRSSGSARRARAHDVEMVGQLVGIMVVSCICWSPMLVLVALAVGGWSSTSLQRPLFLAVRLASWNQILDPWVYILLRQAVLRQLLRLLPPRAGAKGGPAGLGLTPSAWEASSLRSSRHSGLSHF

[4] = biological target: T3, Prostaglandin E2 receptor EP1 subtype (Homo sapiens); assay: Activity at EP1 receptor at 1 uM by FLIPR assay
[5] = biological target: T3, Prostaglandin E2 receptor EP1 subtype (Homo sapiens); assay: Activity at EP1 receptor at 0.1 uM by FLIPR assay
[6] = biological target: T4, Prostaglandin E2 receptor EP4 subtype (Homo sapiens, UniProt P35408); assay: Activity at EP4 receptor at 10 uM by FLIPR assay
[7] = biological target: T4, Prostaglandin E2 receptor EP4 subtype; assay: Activity at EP4 receptor at 1 uM by FLIPR assay
[8] = biological target: T4, Prostaglandin E2 receptor EP4 subtype; assay: Activity at EP4 receptor at 0.1 uM by FLIPR assay
[9] = biological target: T5, Prostaglandin F2-alpha receptor (Homo sapiens, UniProt P43088); assay: Activity at FP receptor at 10 uM by FLIPR assay
[10] = biological target: T5, Prostaglandin F2-alpha receptor; assay: Activity at FP receptor at 1 uM by FLIPR assay
[11] = biological target: T5, Prostaglandin F2-alpha receptor; assay: Activity at FP receptor at 0.1 uM by FLIPR assay
[12] = biological target: T6, Thromboxane A2 receptor (Homo sapiens) (UniProt P21731); assay: Activity at TP receptor at 10 uM by FLIPR assay
T6 sequence (whole entry): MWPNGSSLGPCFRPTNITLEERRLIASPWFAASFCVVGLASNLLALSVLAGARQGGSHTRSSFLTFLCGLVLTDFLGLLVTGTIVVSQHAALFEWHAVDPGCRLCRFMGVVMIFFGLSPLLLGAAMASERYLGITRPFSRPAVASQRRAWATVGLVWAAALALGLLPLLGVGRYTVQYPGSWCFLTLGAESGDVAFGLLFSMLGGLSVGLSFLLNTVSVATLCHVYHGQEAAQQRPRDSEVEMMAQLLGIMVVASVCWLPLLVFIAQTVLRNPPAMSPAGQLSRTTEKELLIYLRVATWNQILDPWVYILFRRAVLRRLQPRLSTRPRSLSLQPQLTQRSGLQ

[13] = biological target: T6, Thromboxane A2 receptor (Homo sapiens); assay: Activity at TP receptor at 1 uM by FLIPR assay
[14] = biological target: T6, Thromboxane A2 receptor (Homo sapiens); assay: Activity at TP receptor at 0.1 uM by FLIPR assay
[15] = Metabolic stability in rat liver microsomes assessed as compound remaining after 30 mins; assay type: ADME, Microsome; settings: read-out: Stability
[16] = Metabolic stability in human liver microsomes assessed as compound remaining after 30 mins; assay type: ADME, Microsome; settings: read-out: Stability
[17] = test system: Platelet; assay: Inhibition of PGE2/collagen-induced platelet aggregation rat platelets rich plasma; assay type: functional
[18] = Protein binding in plasma by HSA-HPLC method; assay type: ADME, cell-free; settings: human, read-out: PB (converted)

T5 sequence (P43088 whole entry): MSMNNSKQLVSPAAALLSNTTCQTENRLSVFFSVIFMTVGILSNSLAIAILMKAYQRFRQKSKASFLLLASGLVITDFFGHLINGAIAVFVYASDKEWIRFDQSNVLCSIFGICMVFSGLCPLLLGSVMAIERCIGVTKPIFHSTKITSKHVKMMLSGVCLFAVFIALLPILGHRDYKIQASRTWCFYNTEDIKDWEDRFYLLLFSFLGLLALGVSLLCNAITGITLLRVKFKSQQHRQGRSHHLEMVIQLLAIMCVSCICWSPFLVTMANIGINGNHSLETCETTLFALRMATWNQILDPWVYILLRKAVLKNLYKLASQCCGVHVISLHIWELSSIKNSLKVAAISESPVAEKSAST
T4 sequence (P35408 whole entry): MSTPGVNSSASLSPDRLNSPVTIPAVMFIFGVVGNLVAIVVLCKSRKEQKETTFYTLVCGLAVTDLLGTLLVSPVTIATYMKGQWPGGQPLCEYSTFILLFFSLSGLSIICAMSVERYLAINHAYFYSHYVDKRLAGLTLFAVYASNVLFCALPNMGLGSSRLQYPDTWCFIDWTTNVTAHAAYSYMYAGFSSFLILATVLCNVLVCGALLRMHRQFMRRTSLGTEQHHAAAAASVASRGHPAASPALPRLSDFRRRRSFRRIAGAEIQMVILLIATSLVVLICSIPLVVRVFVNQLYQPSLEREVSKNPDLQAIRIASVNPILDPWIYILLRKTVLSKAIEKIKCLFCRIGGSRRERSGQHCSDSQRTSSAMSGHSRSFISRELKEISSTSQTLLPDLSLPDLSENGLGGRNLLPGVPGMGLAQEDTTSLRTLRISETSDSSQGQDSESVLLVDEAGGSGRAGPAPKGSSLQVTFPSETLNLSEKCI

| Compound | IC50 [1] [nM] | fold change (FC) [2] | Activity [3] [%] | Activity [4] [%] | Activity [5] [%] | Activity [6] [%] | Activity [7] [%] | Activity [8] [%] | Activity [9] [%] | Activity [10] [%] | Activity [11] [%] | Activity [12] [%] | Activity [13] [%] | Activity [14] [%] | remaining at 0.5 h [15] [%] | remaining at 0.5 h [16] [%] | IC50 [17] [nM] | fraction unbound [18] |
| --- | --- | --- | --- | --- | --- | --- | --- | --- | --- | --- | --- | --- | --- | --- | --- | --- | --- | --- |
| Cc1cn(Cc2ccc3ccccc3c2)c2c(-c3cc(NS(=O)(=O)c4cc(F)c(F)cc4F)no3)cc(F)cc12 | 8 | 2.3 | 100 | 29 | -2 | 9 | -17 | -17 | 19 | 3 | -3 | 19 | -5 | -9 | – | – | – | – |
| Cc1cn(Cc2ccc(Cl)cc2Cl)c2c(-c3cc(NS(=O)(=O)c4cc(Cl)c(Cl)s4)no3)cc(F)cc12 | 5 | 67 | – | – | – | – | – | – | – | – | – | – | – | – | 57.8 | 46.8 | 1040 | – |
| Cc1cn(Cc2ccc(Cl)cc2Cl)c2c(-c3cc(NS(=O)(=O)c4cc(F)c(F)cc4F)no3)cc(F)cc12 | 3 | 3.3 | – | – | – | – | – | – | – | – | – | – | – | – | – | – | – | – |
| Cc1cn(Cc2ccc(F)cc2F)c2c(-c3cc(NS(C)(=O)=O)on3)cc(F)cc12 | 17900 | – | – | – | – | – | – | – | – | – | – | – | – | – | – | – | – | – |
| Cc1cn(Cc2ccc(Cl)cc2Cl)c2c(-c3nnc(NC(=O)c4ccco4)o3)cc(F)cc12 | 363 | – | – | – | – | – | – | – | – | – | – | – | – | – | – | – | – | – |
| Cc1cn(Cc2ccc(F)c(F)c2)c2c(-c3cc(NS(=O)(=O)c4cc(Cl)c(Cl)s4)nn3C)cc(F)cc12 | 1980 | 1 | – | – | – | – | – | – | – | – | – | – | – | – | – | – | – | – |
| Cc1cn(Cc2ccc(Cl)cc2Cl)c2c(-c3cc(NS(=O)(=O)c4ccc(Cl)c(Cl)c4)no3)cc(F)cc12 | 1 | 18 | – | – | – | – | – | – | – | – | – | – | – | – | – | – | – | – |
| Cc1cn(Cc2ccc(Cl)cc2Cl)c2c(-c3nnc(NC(=O)c4ccc(F)c(F)c4)o3)cc(F)cc12 | 664 | 19.6 | 96 | 10 | -7 | 62 | 14 | 9 | 66 | 15 | 3 | 64 | -1 | 11 | – | – | – | – |
| Cc1cn(Cc2ccc(Cl)cc2Cl)c2c(-c3nc(NS(=O)(=O)c4cc(Cl)c(Cl)s4)no3)cc(F)cc12 | 24 | 20.9 | 100 | 74 | 5 | 25 | -21 | -21 | 30 | -2 | -4 | 98 | 5 | 2 | – | – | – | – |
| Cc1cn(Cc2ccc(Cl)cc2Cl)c2c(-c3nnc(NC(=O)c4ccc(F)cc4F)o3)cc(F)cc12 | 1020 | – | – | – | – | – | – | – | – | – | – | – | – | – | – | – | – | – |
| Cc1cn(Cc2ccc(Cl)cc2Cl)c2c(-c3nnc(NS(C)(=O)=O)o3)cc(F)cc12 | 2570 | 199 | – | – | – | – | – | – | – | – | – | – | – | – | – | – | – | – |
| Cc1cn(Cc2ccc3ccccc3c2)c2c(-c3cc(NS(=O)(=O)c4ccc(F)c(F)c4)no3)cc(F)cc12 | 1 | 14.6 | 62 | 9 | -3 | -4 | -17 | -25 | 6 | 0 | -9 | 12 | -2 | 3 | 9.9 | – | – | – |
| Cc1cn(Cc2ccc(Cl)cc2Cl)c2c(-c3nnc(NS(=O)(=O)c4cc(Cl)c(Cl)s4)o3)cc(F)cc12 | 10 | 27 | – | – | – | – | – | – | – | – | – | – | – | – | 46.4 | 62.7 | – | 0.002 |
| Cc1cn(Cc2ccc(Cl)cc2Cl)c2c(-c3nnc(NS(=O)(=O)c4ccc(F)c(F)c4)o3)cc(F)cc12 | 20 | 2.4 | 100 | 30 | -11 | 32 | 26 | 13 | 41 | 26 | 22 | 89 | 9 | -5 | 42.5 | – | 2710 | – |
| Cc1cn(Cc2ccc(F)c(F)c2)c2c(-c3cc(NS(=O)(=O)c4cc(Cl)c(Cl)s4)no3)cc(F)cc12 | 59 | 24.2 | 52 | -5 | -8 | 18 | 11 | 9 | 31 | 18 | 8 | 11 | -3 | 3 | – | – | – | – |

The remaining lines, values ahead:

| IC50 [1] [nM] | fold change (FC) [2] | Activity [3] [%] | Activity [4] [%] | Activity [5] [%] | Activity [6] [%] | Activity [7] [%] | Activity [8] [%] | Activity [9] [%] | Activity [10] [%] | Activity [11] [%] | Activity [12] [%] | Activity [13] [%] | Activity [14] [%] | remaining at 0.5 h [15] [%] | remaining at 0.5 h [16] [%] | IC50 [17] [nM] | fraction unbound [18] | Compound |
| --- | --- | --- | --- | --- | --- | --- | --- | --- | --- | --- | --- | --- | --- | --- | --- | --- | --- | --- |
| 12 | 103 | 99 | 77 | 5 | 38 | -3 | -8 | 99 | -11 | 3 | 70 | 3 | 5 | – | – | – | – | Cc1cn(Cc2ccc(F)c(F)c2)c2c(-c3cc(NS(=O)(=O)c4ccc(F)c(F)c4F)no3)cc(F)cc12 |
| 44 | 178 | 99 | 11 | -9 | 18 | 17 | 18 | 21 | 16 | 15 | 17 | 0 | 3 | – | – | – | – | Cc1cn(Cc2ccc(F)c(F)c2)c2c(-c3cc(NS(=O)(=O)c4ccc(F)c(F)c4)no3)cc(F)cc12 |
| 1 | 3.6 | 80 | 0 | -10 | 10 | -9 | -9 | 7 | -4 | -7 | 7 | -7 | -12 | – | – | 3240 | – | Cc1cn(Cc2ccc3ccccc3c2)c2c(-c3cc(NS(=O)(=O)c4cc(Cl)c(Cl)s4)no3)cc(F)cc12 |
| 2 | 217 | – | – | – | – | – | – | – | – | – | – | – | – | – | – | – | – | Cc1cn(Cc2ccc(Cl)cc2Cl)c2c(-c3ccc(NS(=O)(=O)c4cc(Cl)c(Cl)s4)nc3)cc(F)cc12 |
| 2 | 22 | 99 | 94 | 25 | 84 | 15 | 9 | 64 | 21 | 5 | 99 | 11 | 3 | – | – | – | 0.006 | Cc1cn(Cc2ccc(Cl)cc2Cl)c2c(-c3nnc(NS(=O)(=O)c4cc(F)c(F)cc4F)o3)cc(F)cc12 |
| 11 | 4.9 | 16 | -7 | 2 | 3 | -15 | -29 | -6 | -8 | -3 | -13 | -8 | 9 | – | – | – | – | Cc1cn(Cc2ccc3ccccc3c2)c2c(-c3cc(NS(=O)(=O)c4ccc(Cl)c(Cl)c4)no3)cc(F)cc12 |
| 244 | 21.4 | – | – | – | – | – | – | – | – | – | – | – | – | – | – | – | – | Cc1cn(Cc2ccc(Cl)cc2Cl)c2c(-c3nnc(NC(=O)c4ccc5c(c4)OC(F)(F)O5)o3)cc(F)cc12 |
